In patent US20110245213A1, “TREATMENT” (PROVEXIS NATURAL PRODUCTS LIMITED, priority 2008, published 2011):
Values joined by “and” are separate entries in the source; they are usually repeats but may differ in a detail not shown here. Equal values may be shown once.

Legend:
[1] = molecular target: T1, recombinant human transforming growth factor beta 1 (TGFβ1) (Homo sapiens, UniProt P01137); experiment: Incubation of peptides with isothiocyanates, LC-MS/MS: TGFβ1; format: binding; conditions: for conjugate of TGFβ1 peptide and ITC: PBS pH 7.4, 37° C., 0.5 to 24 hours
T1 construct: TGFβ1 was robustly identified in bands of 25 kDa corresponding to the active dimer; purchased R&D Systems
T1 sequence (P01137 279-390 limits assumed): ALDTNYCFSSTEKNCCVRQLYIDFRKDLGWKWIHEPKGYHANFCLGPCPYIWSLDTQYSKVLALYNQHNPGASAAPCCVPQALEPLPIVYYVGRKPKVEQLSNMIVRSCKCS
Procedure: (§1) Incubations of SF or IB with bovine insulin (P01308, Sigma-Aldrich), recombinant human epidermal growth factor (EGF, P01133, R&D Systems, http://www.rndsystems.com/) and recombinant human transforming growth factor beta 1 (TGFβ1, P01137, R&D Systems) were performed in sodium phosphate-buffered saline solution (pH 7.4) or human blood plasma at 37° C. for 0.5-24 h. Plasma was pre-treated by ultrafiltration to remove high molecular weight proteins (Microcon Ultracel YM-30 filter, MWCO 30,000). Samples were either analyzed directly by LC-MS/MS or by LC-MS/MS analysis of tryptic digests of gel electrophoresis bands.
1 μg aliquots of the TGFβ1 protein, supplied with bovine serum albumin as carrier, were incubated with either DMSO or 1.2 μmoles of SF for 30 minutes at 37° C. and run onto denaturing 4-12% Bis-Tris NuPAGE gels (Invitrogen, http://www.invitrogen.com). Bands were excised and digested with trypsin (Promega, http://www.promega.com/) after reduction with dithiothreitol (DTT) and alklyation with iodoacetamide (Sigma-Aldrich, http://www.sigmaaldrich.com/). Extracted peptides were lyophilized and re-dissolved in 1% acetonitrile, 0.1% formic acid for analysis by mass spectrometry. LC-MS/MS analysis was performed using a LTQ mass spectrometer (Thermo Electron Corporation, http://www.thermo.com/) and a nanoflow-HPLC system (Surveyor, Thermo Electron). Peptides were applied to a precolumn (C18 pepmap100, LC Packings, http://www.lcpackings.com/) connected to a self-packed C18 8-cm analytical column (BioBasic resin ThermoElectron; Picotip 75 μm id, 15 μm tip, New Objective, http://www.newobjective.com/). Peptides were eluted by a gradient of 2 to 30% acetonitrile in 0.1% formic acid over 40 min at a flow rate of approximately 250 nL min^−1. Data-dependent acquisition of MS/MS consisted of selection of the five most abundant ions in each cycle: MS mass-to-charge ratio (m/z) 300 to 2000, minimum signal 1000, collision energy 25, 5 repeat hits, 300 sec exclusion.

[2] = molecular target: T2, recombinant human epidermal growth factor (EGF) (Homo sapiens, UniProt P01133); experiment: Incubation of peptides with isothiocyanates, LC-MS/MS: EGF; format: binding; conditions: for conjugate of EGF peptide and ITC: PBS pH 7.4, 37° C., 0.5 to 24 hours
T2 construct: addition of SF to the N-terminal asparagines residue (m/z 309) of EGF; purchased R&D Systems
T2 sequence (P01133 971-1023 limits assumed): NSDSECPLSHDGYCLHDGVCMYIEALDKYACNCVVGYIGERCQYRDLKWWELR
Procedure: as §1
(§2) The LC system used was a Shimadzu series 10AD VP (Shimadzu, http://www.shimadzu.com/). The column was an ACE 300 C18, 150×2.1 mm (5 μm particle size) used at 40° C. Mobile phase A was 0.1% formic acid in water, mobile phase B, 0.1% formic acid in acetonitrile and the flow rate was 0.25 ml/min. A linear gradient was used from 25% B to 35% B over 0 to 5 min, then a further gradient from 35% B to 99% B over 6 min followed by 99% B for 4 min. The column was re-equilibrated for a total of 3 min. The injection volume was between 5-20 μl. All MS experiments were conducted on a 4000 QTRAP hybrid triple-quadrupole linear ion trap mass spectrometer using Analyst version 1.4.1 software (Applied Biosystems, http://www.appliedbiosystems.com/) equipped with a TurboIon source used in positive ion electrospray mode. The probe capillary voltage was optimized at 4200 V, desolvation temperature set to 400° C., curtain gas, nebulizing and turbo spray gas were set to 40, 10 and 20, respectively (arbitrary values). […] The peak-width was set on Q1 and Q3 at 1.0 Th (measured at half height) for all MS and MS/MS experiments. Spectra were obtained over the range m/z 800-2000 with scan times of 1-2 sec. […]

bovine insulin = molecular target: T3, bovine insulin (Bos taurus, UniProt P01317); experiment: Incubation of peptides with isothiocyanates, LC-MS/MS: insulin; format: binding; conditions: for conjugate of insulin peptide and ITC: PBS pH 7.4, 37° C., 0.5 to 24 hours
T3 construct: m/z 325.2 corresponds to Phe-SF, the N-terminal amino acid of insulin B chain; m/z 235.0 corresponds to Gly-SF, the N-terminal amino acid of insulin A chain; purchased Sigma-Aldrich
T3 sequence (P01317 25-54 limits assumed): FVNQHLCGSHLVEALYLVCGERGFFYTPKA
T3 sequence (P01317 85-105 limits assumed): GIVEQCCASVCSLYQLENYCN
Procedure: as §1, §2

[3] = system: Smad2 phosphorylation in PC3 cells; experiment: Quantification of pSmad2 protein in PC3 cells; format: cell-based; conditions: for PSmad2 / PSmad2 Normalised to GAPDH: PC3 cells
Procedure: FIG. 14 represents (a) a photograph of a gel; and (b) the data quantified in a bar chart which corresponds to the data presented in Table 6 as discussed in Example 2 (Expt 2). The data illustrates how an ITC modulates Smad activity. The experiment concerned pre-incubation of TGFβ1 with and without sulforaphane (SF) for 30 minutes before treating PC3 cells for 1 h and then measuring Smad2 phosphorylation (i.e. a function of TGFβ1 activity).
TGFβ1 acts an anti-inflammatory cytokine. It induces phosphorylation of smad proteins that translocate to the nucleus and induce gene expression associated with anti-inflammatory activity. […] Therefore ITCs act as anti-inflammatory mediators.

[4] = following broccoli consumption, cited from earlier work
[5] = system: TGFβ1/Smad mediated transcription; experiment: Luciferase reporter gene assay in NIH 3T3 cells with CAGA12-luc plasmid; format: cell-based
Procedure: NIH 3T3 cells stably transfected with a CAGA12-luc plasmid, which responds to Smad activation (Dennler et al. (1998) Embo J 17: 3091-3100), were cultured in DMEM supplemented with 10% fetal calf serum (FCS), 1% penicillin, 1% streptomycin, 1% L-glutamine and 0.4 mg/ml geneticin. Cells were seeded into complete growth medium in a six-well tissue culture dish for 24 h, after which the medium was replaced with low serum medium (0.5% FCS) containing one of three treatments:
(1) TGFβ1 (to achieve a final concentration of 2 ng ml^−1) in PBS buffer,
(2) (TGFβ1+10 mM DTT in PBS buffer
(3) TGFβ1+2 μM SF in PBS buffer.
To simulate SF pharmacokinetics, all test samples were incubated at 37° C. for 30 minutes prior to dialysis, performed in PBS buffer for 4 hours using Slide-A-Lyzer Dialysis Cassettes MWCO 3.5K (PIERCE, http://www.piercenet.com/). Dialysis reduced SF concentration to 34 nM. As additional controls, cells were treated with PBS without TGFβ1 and PBS with SF (34 nM). The luciferase activity was determined 16 h following treatment using the Luciferase Reporter Gene assay (Roche Applied Science, http://www.roche.com/) in a Perkin Elmer Wallac Victor 2 1420 multilabel counter plate reader (http://las.perkinelmer.com/). Briefly, cells were washed twice with PBS and lysed in cell lysis buffer supplied with the assay. Chemiluminescence was immediately quantified following the addition of luciferase assay substrate. Luciferase values were normalized to protein concentration quantified using the BCA assay (Sigma-Aldrich, http://www.sigmaaldrich.com/). The experiment was repeated four times, with three replicates of each treatment per experiment. Statistical analysis was performed using 1-way ANOVA with the statistical software, R (http://www.R-project.org).

[6] = system: EGF receptor phosphorylation in BPH1 cells (hyperplastic prostate cells); conditions: BPH cells
[7] = system: Smad2 phosphorylation in A549 cells; experiment: Quantification of pSmad2 protein in A549 cells; format: cell-based; conditions: TGFβ1 alone
[8] = TGFβ1 + 2 μM SF, pre-incubated 30 minutes, cells treated 1 h
[9] = TGFβ1 + 10 μM SF, pre-incubated 30 minutes, cells treated 1 h

C[S+]([O-])CCCN=C=S (stereo not shown) [IB, iberin]
conjugate of TGFβ1 peptide and ITC [1]: formation of a covalently bound conjugate
conjugate of EGF peptide and ITC [2]: formation of a covalently bound conjugate
conjugate of insulin peptide and ITC (bovine insulin): formation of a covalently bound conjugate

C[S+]([O-])CCCCN=C=S (stereo not shown) [SF, sulforaphane]
modification of TGFβ1 (tryptic N-terminal peptide, LC-MS/MS) ([1]; 1 μg TGFβ1 with 1.2 μmoles of SF, 30 minutes at 37° C., SDS-PAGE, trypsin): N-terminal modification
conjugate of TGFβ1 peptide and ITC [1]: formation of a covalently bound conjugate
conjugate of EGF peptide and ITC [2]: formation of a covalently bound conjugate
EGF conjugates (N-terminal asparagine) by LC-MS/MS ([2]; human plasma): formation of EGF conjugates with SF
expression of pSmad2 compared to TGFβ1 alone ([3]; PC3 cell line, co-exposure to TGFβ1 and SF): enhances expression of psamd2
PSmad2 [3, 8]: 8179 counts/mm^2 and 12578 counts/mm^2 and 11881 counts/mm^2
PSmad2 Normalised to GAPDH [3, 8]: 0.1772 and 0.2807 and 0.3091
PSmad2 [3, 9]: 13595 counts/mm^2 and 16870 counts/mm^2 and 15049 counts/mm^2
PSmad2 Normalised to GAPDH [3, 9]: 0.2602 and 0.2810 and 0.3104
conjugate of insulin peptide and ITC (bovine insulin): formation of a covalently bound conjugate
insulin-ITC conjugates (N-terminal Gly and Phe) by LC-MS/MS (bovine insulin; human plasma depleted of high MW proteins): appearance of two insulin-SF conjugates
SF in the plasma that occurs as free SF, as opposed to thiol conjugates [4]: 45%
peak concentration of SF and its thiol conjugates ([4]; plasma): less than 2 μM
Smad-mediated transcription (luciferase) compared to TGFβ1 alone ([5]; TGFβ1 pre-incubated with 2 μM SF for 30 minutes followed by dialysis (SF 34 nM)): increase in Smad-mediated transcription
Smad-mediated transcription (luciferase) ([5]; residual SF (34 nM) alone, without TGFβ1): did not result in enhanced transcription
reduction in EGF receptor phosphorylation ([6]; 10 μmol/L sulforaphane, 10 mg/L EGF, 10 minute timecourse): approximately threefold
amount of phosphorylated EGF receptor compared to EGF alone ([6]; pre-incubation of EGF with ITC): reduces the amount of phosphorylated receptor

TGFβ1: recombinant human transforming growth factor beta 1 (P01137, R&D Systems)
PSmad2 ([3]; TGFβ1 alone, 1 h): 6154 counts/mm^2 and 10910 counts/mm^2 and 7089 counts/mm^2
PSmad2 Normalised to GAPDH ([3]; TGFβ1 alone, 1 h): 0.1039 and 0.1722 and 0.1398
PSmad2 [7]: 1570 counts/mm^2
PSmad2 Normalised to GAPDH [7]: 0.1320
luciferase activity ([5]; TGFβ1 alone, 2 ng ml^−1): induced luciferase activity
